Where a name gives a salt, the structure may show the parent alone.
Tests used:
[1] = target: T1, Bcl-xL-Beclin 1 complex (Homo sapiens, UniProt Q07817); assay: FP-based high-throughput screening, primary screen; type: binding; details: first screen; 40 μM compound, 2.5 μM Bcl-xL, 400 nM 20-mer
T1 construct: made in house
Excerpt: Next, we optimized the FP competitive binding assay in a 384-well microplate format and carried out a small-scale HTS using a small library, which contains 6580 compounds from Prestwick, Microsource and our in-house CMLD library. Then, the FP assay was optimized and applied in screening the larger Chembridge library consisting of 43736 compounds. HTS cascades are shown in Supplementary Figure 1A–1B. […] All chemical structures can be found on the PubChem website (http://pubchem.ncbi.nlm.nih.gov/).
(§1) Then the plates were read by Envision (Perkin Elmer, Waltham, MA). […] The hits were selected from library stocks and reconfirmed in a concentration response FP assay (6 doses ranging from 5 μM to 160 μM or 8 doses ranging from 0.5 μM to 60 μM).

[2] = target: T1, Bcl-xL-Beclin 1 complex; assay: Concentration response FP reconfirmation of HTS hits; type: binding; details: hits of first screen; for inhibition at 5 µM: read-out: Dose-response (% Inhibition) 5 μM; for inhibition at 10 µM: read-out: Dose-response (% Inhibition) 10 μM; for inhibition at 20 µM: read-out: Dose-response (% Inhibition) 20 μM; for inhibition at 40 µM: read-out: Dose-response (% Inhibition) 40 μM; for inhibition at 80 µM: read-out: Dose-response (% Inhibition) 80 μM; for inhibition at 160 µM: read-out: Dose-response (% Inhibition) 160 μM
Procedure: as §1

[3] = test system: PC-3a; assay: MTT-based cytotoxicity assay, PC-3a; details: Homo sapiens, averages of at least two independent experiments, read-out: Cytotoxicity in different cell lines (IC50, μM) PC-3a
Excerpt: (§2) Human prostate cancer cell lines PC-3 and DU145, were purchased from American Type Culture Collection (ATCC) and used within 50 passages. PC-3a is a derivative of PC-3 that is resistant to chemo/radiotherapy, established in our lab and confirmed by genotyping. All cells were maintained in DMEM (Mediatech, Manassas, VA) supplemented with 10% fetal bovine serum (FBS) (Sigma-Aldrich, St. Louis, MO), 1% Glutamine (Mediatech, Manassas, VA), 1% antibiotics (Mediatech, Manassas, VA). Compounds for primary FP-based HTS screening were from Prestwick, Microsource, University of Kansas Center of Excellence in Chemical Methodologies & Library Development (KU CMLD, Lawrence, KS), and Chembridge libraries. Compounds for MTT and SPR validation experiment were purchased from Microsource (Gaylordsville, CT) and Hit2lead Company (San Diego, CA). Acridine analogues, compound 1–6, were from our in-house library (provided by Specialized Chemistry Center, University of Kansas, Lawrence, KS); compound 7–17 were synthesized as described in supplementary information. (–)-Gossypol was isolated from racemic gossypol as we previously described. ABT-263 and DMSO were purchased from Sigma. MTT-based cytotoxicity assay and western blot analysis was carried out according to our previous publications. The primary antibodies used were LC3B (#2775) (Cell signaling Technology, Danvers, MA) and β-actin (A5441) (Sigma).

[4] = test system: PC-3; assay: MTT-based cytotoxicity assay, PC-3; details: Homo sapiens, averages of at least two independent experiments, read-out: Cytotoxicity in different cell lines (IC50, μM) PC-3
Excerpt: as §2

[5] = target: T2, Bcl-xL protein (Homo sapiens, UniProt Q07817); assay: Surface plasmon resonance assay, immobilized Bcl-xL; type: binding; details: SPR; 10 μM compound; Bcl-xL immobilized 10000 RU
T2 construct: made in house
Procedure: The surface plasmon resonance experiments were performed using a Biacore 3000 (GE Healthcare Pittsburgh, PA) equipped with a research-grade CM5 sensor chip. The ligand (Bcl-xL) was immobilized using amine-coupling chemistry. The surfaces of flow cells on a Biacore sensor chip CM5 were activated for 7 min with a 1:1 mixture of 0.1 M NHS (N-hydroxysuccinimide) and 0.1 M EDC (3-(N,N-dimethylamino) propyl-N-ethylcarbodiimide) at a flow rate of 5 μL/min. The ligand (Bcl-xL) at a concentration of 180 μg/mL in 10 mM sodium acetate, pH 4.5, was immobilized at a density of about 10000 RU on flow cell 2; the ligand (SUMO-Bcl-2, 37.5 kDa, > 90% pure based on SDS–PAGE) at a concentration of 44 μg/ml in 10 mM sodium acetate, pH 4.5, was immobilized at a density of 10000 RU on flow cell 3; flow cell 1 was left blank to serve as a reference surface. All the surfaces were blocked with a 7 min injection of 1 M ethanolamine, pH 8.0.
For kinetic analysis, a concentration series of analyte were injected over the flow cells at a flow rate of 60 μL/min at 20 °C. The complex was allowed to associate and dissociate for 120 and 180 s, respectively. For binding studies, analyte (or test compound) was injected over the two flow cells in duplicate at indicated concentration at a flow rate of 60 μL/min at 20 °C. The running buffer consisted of 20 mM HEPES, 150 mM NaCl, 3 mM EDTA, 1 mM DTT, 0.05% P20, 5% DMSO, pH 7.4. The complex was allowed to associate and dissociate for 120 and 180 s, respectively. The buffer samples containing a range of 4–6% DMSO were injected at the beginning, used for solvent correction. The surfaces were regenerated between binding cycles with a 5 s injection of 5 mM NaOH for compounds and 10 mM Glycine pH 2.5 for 20-mer.
All measurements were taken with flow cell 1 as a reference (i.e. sensorgram depicts “2–1 correction”) and corrected for DMSO bulk differences via the calibration curves. To obtain kinetic rate constants (Ka and Kd), corrected response data were fit to a simple 1:1 interaction model using local fit (includes correction for mass transport limitations) available within Biaevaluation 3.1 software or Scrubber2 software. The equilibrium dissociation constant (KD) was determined by Kd/Ka.

[6] = test system: PC-3 and PC-3a cells; assay: RFP-GFP-LC3 fluorescence microscopy (autophagic flux); type: cell-based, Human; details: cells transfected with RFP-GFP-LC3, treated 24 h; PC-3a and PC-3
Procedure: Figure 5 Acridine compounds induce autophagy in prostate cancer cells (A) LC3-II conversion in western blot analysis indicated the activity of autophagy. Cells were treated with DMSO or compounds for 24 h, and then lysed and processed for western blot analysis of LC3. (–)G and EBSS were used as positive controls. […] Yellow puncta indicate autophagosome (overlay of red and green fluorescence); red puncta indicate autolysosome (due to green fluorescence quenching at the acidic condition). Cells expressing RFP-GFP-LC3 were treated with compounds A13, A15 or A21 at indicated concentration for 24 h.
PC-3 and PC-3a cells were transfected with ptfLC3 plasmid using Lipofectamine 2000 (Invitrogen Life Technologies, Carlsbad, CA). ptfLC3 was a gift from Tamotsu Yoshimori (Addgene plasmid # 21074), and is a tandem fluorescent-tagged LC3 with mRFP (mRFP, monomeric Red Fluorescent Protein) and EGFP (EGFP, Enhanced Green Fluorescent Protein). Twenty-four hours after transfection, cells were treated with compounds for 24 h, then fixed in 4% formaldehyde for 10 min. Cells were then washed three times with PBS, stained with DAPI (0.5 μg/ml in PBS) for 5 min and observed under a fluorescence microscope (OLYMPUS IX81, Tokyo, Japan) with X 40 lens.

T2 sequence (Q07817 whole entry): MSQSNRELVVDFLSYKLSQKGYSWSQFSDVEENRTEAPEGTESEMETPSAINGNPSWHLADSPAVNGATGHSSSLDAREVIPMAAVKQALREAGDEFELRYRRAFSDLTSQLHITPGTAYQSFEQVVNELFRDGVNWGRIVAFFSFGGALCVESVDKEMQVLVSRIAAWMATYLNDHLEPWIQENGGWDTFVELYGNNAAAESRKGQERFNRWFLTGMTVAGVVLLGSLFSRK
T1 sequence (Q07817 whole entry, one chain of several): as the sequence (Q07817 whole entry) above

Primary Screen mP [1] | inhibition at 40 µM [1] | inhibition at 5 µM [2] | inhibition at 10 µM [2] | inhibition at 20 µM [2] | inhibition at 40 µM [2] | inhibition at 80 µM [2] | inhibition at 160 µM [2] | binding level to Bcl-xL protein in SPR [5] | Structure (SMILES) | IC50 [3] | IC50 [4] | RFP-GFP-LC3 puncta [6]
-3.2 mP | 102% | 55.9% | 65.8% | 101% | 102% | 102% | 102% | could bind to Bcl-xL | Nc1ccc2cc3ccc(N)cc3nc2c1 [Compound A13, PROFLAVINE HEMISULFATE] | 0.68 ± 0.16 µM | 1.08 ± 0.1 µM | many strong red puncta
83.5 mP | 37.9% | -0.5% | 6.2% | 14.9% | 20% | 47.7% | 60.9% | could bind to Bcl-xL | CCOc1ccc2nc3cc(N)ccc3c(N)c2c1 [Compound A15, ETHACRIDINE LACTATE] | 2.33 ± 0.99 µM | 1.61 ± 0.42 µM | many strong red puncta
72.2 mP | 48.2% | 14.5% | 26.7% | 38.6% | 47.9% | 58.3% | 66.3% | could bind to Bcl-xL | CCN(CC)CCCC(C)Nc1c2ccc(Cl)cc2nc2ccc(OC)cc12 (stereo not drawn) [Compound A21, QUINACRINE HYDROCHLORIDE] | 0.8 ± 0.12 µM | 0.77 ± 0.1 µM | many strong red puncta

Reference: paper PMC5584254, “Identification of novel small molecule Beclin 1 mimetics activating autophagy” (Oncotarget, 2017)
